# Reference: patent US20250197425A1, “2,6,9-TRISUBSTITUTED PURINES” (ASTRAZENECA AB, priority 2022, published 2025)
# What was measured:
# [1] = tested on: MCF-7 cells; experiment: Cellular proliferation EdU assay, MCF-7; assay type: cell-based; details: Homo sapiens, MCF7, 48 h, EdU assay, two days; read-out: MCF-7 IC50
# Procedure: (§1) Compounds were tested to assess inhibition of cellular proliferation in the breast cancer cell line MCF-7 and the CCNE1-amplified ovarian cell line OVCAR3.
# (§2) MCF-7 and OVCAR3 cells in RPMI supplemented with 10% Fetal bovine serum were seeded into 384-well plates (Greiner, Kremsmunster, Austria; 781091), 30 μL/well, using a WellMate. The MCF7 and OVCAR3 cells were seeded at 800 and 1200 cells/well, respectively. Test compounds were added to the wells using an Echo 555 liquid handler and the plates were placed in incubator maintained at 37° C. and 5% CO2 and incubated for two days. On Day 2, an EdU assay was performed following the manufacturer's protocol (Thermo Fisher, C10351). The cells were read on an Acumen eX3 instrument. The IC50 values of test compounds were determined in Genedata by assessing the ratio of signal intensity at 488 nm to the area of signal at 405 nm.
# [2] = target: CDK2:CCNE1 (Homo sapiens (Human), UniProt P24941); experiment: NanoBRET assay in MCF-7 cells, CDK2; assay type: cell-based; details: transfected MCF-7 cells, 2 hours, n = 1 or average
# Procedure: Compounds were tested in breast cancer cell line MCF-7 to assess inhibition of CDK1, CDK2, and CDK4 activity. […] The next day media were evacuated from the wells using the Bluewasher centrifugal plate washer (Bluecatbio) and 10 μL/well phenol red free OptiMEM was then added using a Multidrop Combi. […] Immediately after compound addition, a Tecan HP300 dispensor was used to dispense the relevant NanoBRET™ tracer to the CDK1 wells (12.5 nl, 400 μM, NanoBRET™ TE Tracer K-9), the CDK2 wells (12.5 nl, 200 μM, NanoBRET™ TE Tracer K-9), and the CDK4 wells (8 nl, 100 μM, NanoBRET™ TE Tracer K-7) and the plates were incubated for 2 hours at 37° C. and 5% CO2. […] The plates were incubated in subdued lighting for 10 minutes and then read on a Pherastar FS plate reader (BMG Technologies) using a NanoBRET™ filter module (460±80 nm/610 nm-LP). The ratio values were normalized to controls and the IC50 values of test compounds determined using Genedata Screener software.
# [3] = tested on: NPM phosphorylation (Thr199, CDK2-cyclin E complex); experiment: NPM phosphorylation imaging assay in MCF-7 cells; assay type: cell-based; details: Homo sapiens, 4N DNA cells
# Procedure: Compounds were tested to assess the effects of CDK2 inhibition in a cellular context. […] During the cell cycle, the CDK2-cyclin E complex phosphorylates NPM at Thr199 which is a prerequisite step for initiation of centrosome duplication.
# The cells were fixed by addition of 40 μL/well of 8% paraformaldehyde and incubated at room temperature for 10 minutes. The plates were washed three times with 50 μL/well PBS using a Biotek EL406 plate washer and then permeabilized for 10 minutes at room temperature in 0.3% Triton X100 in PBS. After washing as before, the plates were blocked using 30 μL/well of 2% BSA (w/v) in PBS-T for at least 30 minutes at room temperature. […] Cells containing 4N DNA were selected using the Hoechst staining. Phospho-NPM levels were normalized to controls and the IC50 values of test compounds determined using Genedata Screener software.
# [4] = CLint assessment in human liver microsomes (HLM); assay type: in vitro ADME; details: 1 μM
# Procedure: After a preincubation with NADPH for 8 minutes, reactions were initiated through the addition of the test compound (final volume 250 μl) and incubated at 37° C. in a water bath for 30 minutes. […] Samples were shaken at 800 rpm for 2 minutes and centrifuged at 4000 rpm for 20 minutes at 4° C. to pellet precipitated protein. The supernatant fraction was diluted 1:5 with deionized water, shaken at 1000 rpm for 2 minutes, and further diluted 1:1 with deionized water. Samples were analyzed by LC-MS/MS. The t1/2 and the CLint of the compounds incubated in the LM, HLM, and HμREL assays as described above were calculated according to the following equations: […] where V (μl/×10^6 cells or mg protein) is the incubation volume (μl) divided by the number of cells (×10^6) or microsomal protein content (mg) in the incubation.
# [5] = target: CDK4:CCND1 (Homo sapiens (Human), UniProt P11802); experiment: NanoBRET assay in MCF-7 cells, CDK4; assay type: cell-based; details: NanoBRET, transfected MCF-7 cells, 2 hours; n = 1 or average; read-out: CDK4 IC50
# Procedure: (§3) Compounds were tested in breast cancer cell line MCF-7 to assess inhibition of CDK1, CDK2, and CDK4 activity. MCF-7 cells transiently transfected with CDK1:CCNB1, CDK2:CCNE1, or CDK4:CCND1 were harvested at a density of 1E5 cells/mL in complete media, seeded 20 μL/well into 384-well Greiner 784080 plates using a Multidrop Combi, and incubated overnight at 37° C. and 5% CO2. The next day media were evacuated from the wells using the Bluewasher centrifugal plate washer (Bluecatbio) and 10 μL/well phenol red free OptiMEM was then added using a Multidrop Combi. […] Immediately after compound addition, a Tecan HP300 dispensor was used to dispense the relevant NanoBRET™ tracer to the CDK1 wells (12.5 nl, 400 μM, NanoBRET™ TE Tracer K-9), the CDK2 wells (12.5 nl, 200 μM, NanoBRET™ TE Tracer K-9), and the CDK4 wells (8 nl, 100 μM, NanoBRET™ TE Tracer K-7) and the plates were incubated for 2 hours at 37° C. and 5% CO2. The plates were allowed to cool for 10 minutes at room temperature and 5 μL/well of TE Nano-Glo®Substrate/Inhibitor at 2.4 μM and 1:500 respectively (N2162 Promega) was added. The plates were incubated in subdued lighting for 10 minutes and then read on a Pherastar FS plate reader (BMG Technologies) using a NanoBRET™ filter module (460±80 nm/610 nm-LP). The ratio values were normalized to controls and the IC50 values of test compounds determined using Genedata Screener software.
# [6] = Aqueous thermodynamic solubility, shake-flask; assay type: physicochemical; details: aqueous phosphate buffer, 25 °C, pH 7.4, aqueous buffer, thermodynamic from solid, phosphate buffer 0.1 M, pH 7.4, 24 hours
# Procedure: The DMSO was evaporated and the dried compounds were equilibrated in glass vials in aqueous phosphate buffer (0.1 M, pH 7.4) for 24 hours at 25° C. under constant stirring. The portion with the dissolved compound was then separated from the remainder through a double centrifugation with a tip wash in between to ensure that no residues of the dried compound were interfering. The solutions were diluted with purified water before quantification using UPLC/MS/MS.
# [7] = target: CDK1:CCNB1 (Homo sapiens (Human), UniProt P06493); experiment: NanoBRET assay in MCF-7 cells, CDK1; assay type: cell-based; details: NanoBRET, transfected MCF-7 cells, 2 hours; n = 1 or average; read-out: CDK1 IC50
# Procedure: as §3
# [8] = tested on: POLR2A Ser2 phosphorylation (CDK9); experiment: POLR2A Ser2 phosphorylation imaging assay in MCF-7 cells; assay type: cell-based; details: Homo sapiens, MCF7, 2 h, MCF-7 cells, 2 hours; read-out: POLR2A Ser2 phosphorylation IC50
# Procedure: Compounds were tested to assess their effect on CDK9 activity in a cellular context. […] During the cell cycle, CDK9 is a component of a multiprotein complex that phosphorylates POLR2A Ser2 which results in transcription elongation.
# […] were fixed by addition of 40 μL/well of 8% paraformaldehyde and incubated for 10 minutes at room temperature. The plates were washed three times with 50 μL/well PBS using a Biotek EL406 plate washer and then permeabilized for 10 minutes at room temperature in 0.3% Triton X100 in PBS. After washing as before, the plates were blocked using 30 μL/well of 2% BSA (w/v) in PBS-T for over 30 minutes at room temperature. […] After washing in PBS as before, leaving each well in 40 μL of PBS, the plates were sealed and imaged on a Cell Insight imaging system (Thermo) with a 10× objective and 2 fields of view per well. POLR2A Ser2levels were normalized to controls and the IC50 values of test compounds determined using Genedata Screener software.
# [9] = tested on: OVCAR3 cells; experiment: Cellular proliferation EdU assay, OVCAR3; assay type: cell-based, human; details: Homo sapiens, OVCAR-3, 48 h, EdU assay, two days; read-out: OVCAR3 IC50
# Procedure: as §1, §2
# CDK1:CCNB1, sequence (P06493 whole entry): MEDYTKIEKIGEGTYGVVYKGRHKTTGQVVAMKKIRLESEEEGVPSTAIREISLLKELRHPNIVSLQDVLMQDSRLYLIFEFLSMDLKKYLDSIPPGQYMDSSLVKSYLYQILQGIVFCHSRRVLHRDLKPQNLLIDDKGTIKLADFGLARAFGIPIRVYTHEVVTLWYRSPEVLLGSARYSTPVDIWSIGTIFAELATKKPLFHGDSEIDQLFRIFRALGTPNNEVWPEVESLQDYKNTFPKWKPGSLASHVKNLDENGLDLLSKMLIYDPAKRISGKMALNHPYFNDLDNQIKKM
# CDK1:CCNB1, sequence (P14635 whole entry partner): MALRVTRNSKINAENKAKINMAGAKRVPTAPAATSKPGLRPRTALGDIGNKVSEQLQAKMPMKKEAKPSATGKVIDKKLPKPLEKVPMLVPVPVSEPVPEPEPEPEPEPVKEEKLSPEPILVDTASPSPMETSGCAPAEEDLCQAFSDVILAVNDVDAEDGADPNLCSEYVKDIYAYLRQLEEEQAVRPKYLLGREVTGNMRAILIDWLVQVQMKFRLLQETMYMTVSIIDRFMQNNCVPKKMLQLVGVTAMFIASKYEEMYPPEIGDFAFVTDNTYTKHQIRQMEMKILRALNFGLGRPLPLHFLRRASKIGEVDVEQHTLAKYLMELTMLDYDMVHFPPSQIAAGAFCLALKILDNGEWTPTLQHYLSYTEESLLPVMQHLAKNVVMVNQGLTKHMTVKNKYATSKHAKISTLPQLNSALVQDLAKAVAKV
# CDK4:CCND1, sequence (P11802 whole entry): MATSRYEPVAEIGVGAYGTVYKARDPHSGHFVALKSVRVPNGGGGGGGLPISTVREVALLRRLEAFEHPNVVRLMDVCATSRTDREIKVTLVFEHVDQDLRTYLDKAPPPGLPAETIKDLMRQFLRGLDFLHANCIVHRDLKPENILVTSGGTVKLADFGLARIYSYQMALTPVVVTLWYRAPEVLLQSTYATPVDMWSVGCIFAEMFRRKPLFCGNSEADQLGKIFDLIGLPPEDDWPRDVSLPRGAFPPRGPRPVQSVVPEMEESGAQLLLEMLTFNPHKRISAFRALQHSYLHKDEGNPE
# CDK4:CCND1, sequence (P24385 whole entry partner): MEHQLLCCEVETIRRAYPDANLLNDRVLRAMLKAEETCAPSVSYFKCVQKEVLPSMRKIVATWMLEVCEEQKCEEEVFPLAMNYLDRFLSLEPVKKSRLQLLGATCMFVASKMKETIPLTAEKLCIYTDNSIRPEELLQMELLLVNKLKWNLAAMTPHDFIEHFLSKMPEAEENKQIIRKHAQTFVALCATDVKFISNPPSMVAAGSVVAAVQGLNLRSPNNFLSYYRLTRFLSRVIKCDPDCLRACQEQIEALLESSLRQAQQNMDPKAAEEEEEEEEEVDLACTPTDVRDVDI
Structure (SMILES),IC50 [1],IC50 [2],"IC50 ([3]; MCF7, 2 h)",HLM CLint [4],IC50 [5],solubility at 24 h [6],IC50 [7],IC50 [8],IC50 [9],"IC50 ([3]; MCF7, 2 hours)"
"CCn1cnc2c(N[C@H]3CCN(S(=O)(=O)CC(F)(F)F)C3)nc(N[C@@H](CO)C(C)C)nc21 [Example 40, (R)-2-((9-ethyl-6-(((S)-1-(2,2,2-trifluoroethylsulfonyl)pyrrolidin-3-yl)amino)-9H-purin-2-yl)amino)-3-methylbutan-1-ol]",2710 nM,24 nM,253 nM,>300 µL/min/mg,4300 nM,1.79 µM,587 nM,> 30000 nM,6720 nM,
"CCn1cnc2c(N[C@H]3CCN(S(=O)(=O)CF)C3)nc(N[C@@H](CO)C(C)C)nc21 [Example 43, (R)-2-((9-ethyl-6-(((S)-1-(fluoromethylsulfonyl)pyrrolidin-3-yl)-amino)-9H-purin-2-yl)amino)-3-methylbutan-1-ol]",328 nM,11 nM,150 nM,148 µL/min/mg,5200 nM,97.2 µM,557 nM,> 30000 nM,291 nM,
"CCNS(=O)(=O)N1CC[C@H](Nc2nc(N[C@@H](CO)C3CC3)nc3c2ncn3C(F)F)C1 [Example 14, (S)-3-((2-(((R)-1-cyclopropyl-2-hydroxyethyl)amino)-9-(difluoromethyl)-9H-purin-6-yl)amino)-N-ethylpyrrolidine-1-sulfonamide]",111 nM,6 nM,41 nM,38 µL/min/mg,1000 nM,320 µM,98 nM,4200 nM,51 nM,
"CCNS(=O)(=O)N1CC[C@H](Nc2cc(N[C@@H](CC)[C@@H](C)O)nc3c2ncn3CC)C1 [Example 60, (S)—N-ethyl-3-((3-ethyl-5-(((2R,3S)-2-hydroxypentan-3-yl)amino)-3H-imidazo[4,5-b]pyridin-7-yl)amino)pyrrolidine-1-sulfonamide]",637 nM,14 nM,64 nM,65.6 µL/min/mg,2500 nM,51.3 µM,426 nM,6100 nM,89 nM,
"CC(C)[C@H](CO)Nc1nc(N[C@H]2C[C@H](C)N(S(C)(=O)=O)C2)c2ncn(C(C)C)c2n1 [Example 35, (R)-2-((9-isopropyl-6-(((3S,5S)-5-methyl-1-(methylsulfonyl)-pyrrolidin-3-yl)amino)-9H-purin-2-yl)amino)-3-methylbutan-1-ol]",3330 nM,52 nM,,>300 µL/min/mg,11200 nM,26.4 µM,6080 nM,> 30000 nM,1620 nM,1220 nM
"CC[C@H](Nc1nc(N[C@H]2CCN(S(N)(=O)=O)C2)c2ncn(CC)c2n1)C(C)=O [Example 10, (S)-3-((9-ethyl-2-(((S)-2-oxopentan-3-yl)amino)-9H-purin-6-yl)amino)pyrrolidine-1-sulfonamide]",2940 nM,100 nM,481 nM,17.6 µL/min/mg,> 23100 nM,> 904 µM,4620 nM,> 30000 nM,1300 nM,
"CC[C@H](Nc1nc(N[C@H]2CCN(S(=O)(=O)NC)C2)c2ncn(C(F)F)c2n1)[C@@H](C)O [Example 55, (S)-3-((9-(difluoromethyl)-2-(((2R,3S)-2-hydroxypentan-3-yl)amino)-9H-purin-6-yl)amino)-N-methylpyrrolidine-1-sulfonamide]",514 nM,,,,,> 1000 µM,,14400 nM,147 nM,142 nM
"CC(C)[C@H](CO)Nc1nc(N[C@@H]2CN(S(C)(=O)=O)C[C@H]2F)c2ncn(C(C)C)c2n1 [Example 33, (R)-2-((6-(((3R,4R)-4-fluoro-1-(methylsulfonyl)pyrrolidin-3-yl)amino)-9-isopropyl-9H-purin-2-yl)amino)-3-methylbutan-1-ol]",2970 nM,26 nM,,,8100 nM,,5750 nM,> 30000 nM,880 nM,752 nM
"CC[C@H](CO)Nc1nc(N[C@H]2CCN(S(C)(=O)=O)C2)c2ncn(CC)c2n1 [Example 38, (R)-2-((9-ethyl-6-(((S)-1-(methylsulfonyl)pyrrolidin-3-yl)amino)-9H-purin-2-yl)amino)butan-1-ol]",2310 nM,21 nM,,,6000 nM,,1040 nM,> 30000 nM,782 nM,392 nM
